Reference: US6469052B2, “Compounds for the photodecontamination of pathogens in blood” (Cerus Corporation, priority 1993, dated 2002)
Where two headings read alike, the source gives them in different places.

Key:
[1] = test system: Salmonella typhimurium TA1538; assay: Ames assay (dark mutagenicity), strain TA1538
From the text: (§1) The second property that is important in testing a compound for use in methods of the present invention is mutagenicity. The most widely used mutagen/carcinogen screening assay is the Ames test. This assay is described by D. M. Maron and B. N. Ames in Mutation Research 113: 173 ( 1983) and a specific screen is described in detail in Example 17, below. The Ames test utilizes several unique strains of Salmonella typhimurium that are histidine- dependent for growth and that lack the usual DNA repair enzymes. The frequency of normal mutations that render the bacteria independent of histidine (i.e., the frequency of spontaneous revertants) is low. The test allows one to evaluate the impact of a compound on this revertant frequency.
(§2) In this example the compounds of the present invention are tested for their dark mutagenicity using an Ames assay. The procedures used for the Salmonella mutagenicity test as described in detail by Maron and Ames were followed exactly. Maron, D. M. and B. N. Ames, Mutation Research 113: 173 ( 1983). A brief description for each procedure is given here. The tester strains TA97a, TA98, TA100, TA102, TA1537 and TA1538 were obtained from Dr. Ames. TA97a, TA98, TA1537 and TA1538 are frameshift tester strains. TA100 and TA102 are base-substitution tester strains. Upon receipt each strain was cultured under a variety of conditions to confirm the genotypes specific to the strains.
(§3) The first tests done with the strains were to determine the range of spontaneous reversion for each of the strains. With each mutagenicity experiment the spontaneous reversion of the tester strains to histidine independence was measured and expressed as the number of spontaneous revertants per plate. This served as the background controls.
(§4) For all experiments, the pre-incubation procedure was used. In this procedure one vial of each tester strain was thawed and 20 μL of this culture was added to 6 mL of Oxoid Nutrient Broth #2. This solution was allowed to shake for 10 hours at 37° C. In the pre-incubation procedure, 0.1 mL of this overnight culture was added to each of the required number of sterile test tubes. To half of the tubes 0.5 mL of a 10% S-9 solution containing Aroclor 1254 induced rat liver extract (Molecular Toxicology Inc., Annapolis, Md.), and MgCl2, KCl, glucose-6-phosphate, NADP, and sodium phosphate buffer (Sigma, St. Louis, Mo.) were added. To the other half of the tubes 0.5 mL of 0.2M sodium phospate buffer, pH 7.4, was used in place of the S-9 mixture (the -S9 samples). Finally 0.1 mL of the test solution containing either 0, 0.1, 0.5, 1, 5, 10, 50, 100, 250, or 500 μg/mL of the test compound was added. The 0.7 mL mixture was vortexed and then pre-incubated while shaking for 20 minutes at 37° C. After shaking, 2 mL of molten top agar supplemented with histidine and biotin were added to the 0.7 mL mixture and immediately poured onto a minimal glucose agar plate (volume of base agar was 20 mL). The top agar was allowed 30 minutes to solidify and then the plates were inverted and incubated for 44 hours at 37° C. After incubation the number of revertant colonies on each plate were counted. […] (“n” represents the number of replicates performed for each data point.)
(§5) Maron and Ames (1983) describe the conflicting views with regard to the statisical treatment of data generated from the test.

[2] = test system: Chinese hamster ovary (CHO) cells; assay: In vitro genotoxicity screen in CHO cells; format: cell-based; conditions: approximately 3 hours exposure in the dark, dilutions 1-1000 μg/ml
From the text: The positive control was methylmethane sulfonate.
Coverslips were mounted with Permount.

mouse reticulocytes = conditions: increased dose levels, male Balb/c mice, tail vein
Protocol: Male Balb/c mice were then injected with 0.1 ml of a compound solution via the tail vein. At least 3 mice were injected per dose level. Saline only was used as a negative control. For a positive control, cyclophosphamide (cycloPP) was administered at a dose of 30 mg/kg. In the experimental group, the injections were repeated once per day for four days. In the positive control group, the sample was administered only once, on day three. On day 5, several microliters of blood were withdrawn from each subject and smeared on a glass slide. Cells were fixed in absolute methanol and stored in a slide rack.
For analysis, cells were stained with acridine orange and visualized under a fluorescence microscope by counting: (i) the number of reticulocytes per 5000 erythrocytes; and (ii) the number of micronucleated reticulocytes per 1000 reticulocytes. Reticulocytes were distinguished by their red fluorescence due to the presence of RNA. Micronuclei were distinguished by their green fluorescence due to the presence of DNA. The percentage of reticulocytes (%PCE) was then calculated. A decrease in the frequency of […] in the percentage of reticulocytes, is an indication of bone marrow toxicity. The percentage of reticulocytes with micronuclei (%PCE with MN) was also calculated. An increase in %PCE with MN is a measure of clastogenicity.
After initial results were determined, the experiment was repeated using increased dose levels, until: (i) Micronucleus formation was seen; or (ii) Bone marrow toxicity was observed; or (ii) The lethal dose was reached; or (iv) A dose of 5 g/kg was administered.

[3] = test system: Salmonella typhimurium TA100
From the text: as §1, §2, §3, §4, §5

SMILES	revertants per plate ([1]; TA1538 −S9, 5 μg/plate)	revertants per plate ([1]; TA1538 −S9, 10 μg/plate)	genotoxic (toxic) concentration [2] [µg/mL]	outcome of dose escalation in the micronucleus assay (mouse reticulocytes)	revertants per plate ([3]; TA100 +S9, 5 μg/plate)	revertants per plate ([3]; TA100 +S9, 10 μg/plate)	revertants per plate ([3]; TA100 +S9, 50 μg/plate)	revertants per plate ([3]; TA100 +S9, 100 μg/plate)	revertants per plate ([3]; TA100 −S9, 5 μg/plate)	revertants per plate ([3]; TA100 −S9, 10 μg/plate)	revertants per plate ([3]; TA100 −S9, 50 μg/plate)	revertants per plate ([3]; TA100 −S9, 100 μg/plate)	revertants per plate ([3]; TA100 +S9, 250 μg/plate)
Cc1oc2c(C)c3oc(=O)cc(C)c3cc2c1COCCN [Compound 2, 4′-(4-amino-2-oxa)butyl-4,5′,8-trimethylpsoralen]	−8	−13	100	the acutely lethal dose was reached before there were any signs of bone marrow toxicity or micronucleus formation	−18	1	115	96	103	46	182	121	
Cc1oc2c(C)c3oc(=O)cc(C)c3cc2c1CNCCCCN [Compound 6, 4′-(6-amino-2-aza)hexyl-4,5′,8-trimethylpsoralen]	−5	−2	100	the acutely lethal dose was reached before there were any signs of bone marrow toxicity or micronucleus formation	12	−5	24	−2					−38
